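In this assay, cells in 96-well plates receive the compound at five concentrations for 48 hours. Endpoints are linearly interpolated between the surrounding concentrations. Here, GI50 denotes the concentration required for 50% inhibition of growth. The concentration for full growth arrest is given as TGI.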
Assays:
Test in all cases: NCI tumour cell line growth inhibition, 48 h
OVCAR-8 ovarian = test system: OVCAR-8 ovarian
SN12C renal = test system: SN12C renal
OVCAR-5 ovarian = test system: OVCAR-5 ovarian
SK-MEL-5 melanoma = test system: SK-MEL-5 melanoma
U251 CNS = test system: U251 CNS
UACC-257 melanoma = test system: UACC-257 melanoma
EKVX NSCLC = test system: EKVX NSCLC
OVCAR-4 ovarian = test system: OVCAR-4 ovarian
HT29 colon = test system: HT29 colon
HCT-15 colon = test system: HCT-15 colon

c1ccc(-n2cnnc2-c2nsc3ccccc23)cc1
TGI (OVCAR-8 ovarian): > 100 µM
TGI (SN12C renal): > 100 µM
TGI (OVCAR-5 ovarian): > 100 µM
TGI (SK-MEL-5 melanoma): > 100 µM
TGI (U251 CNS): > 100 µM
TGI (UACC-257 melanoma): > 100 µM
TGI (EKVX NSCLC): > 100 µM
TGI (OVCAR-4 ovarian): > 100 µM
TGI (HT29 colon): > 100 µM
TGI (HCT-15 colon): > 100 µM

C=C1C(=O)OC2/C=C(\C)C(=O)CC3OC(C)(C)OC3(C)CC(OC(=O)/C(C)=C/C)C12 (stereo not given)
TGI (OVCAR-8 ovarian): > 68.9 µM
TGI (SN12C renal): > 59.2 µM
TGI (OVCAR-5 ovarian): 47.2 µM
TGI (SK-MEL-5 melanoma): > 91.2 µM
TGI (U251 CNS): > 75.2 µM
TGI (UACC-257 melanoma): 31.5 µM
TGI (EKVX NSCLC): 34.2 µM
TGI (OVCAR-4 ovarian): 41.5 µM
TGI (HT29 colon): 37.2 µM
TGI (HCT-15 colon): 19.8 µM

CCN(CC)C(=S)SC(=S)N(CC)CC
TGI (OVCAR-8 ovarian): > 100 µM
TGI (SN12C renal): > 100 µM
TGI (OVCAR-5 ovarian): > 100 µM
TGI (SK-MEL-5 melanoma): > 46.5 µM
TGI (U251 CNS): > 100 µM
TGI (UACC-257 melanoma): > 100 µM
TGI (EKVX NSCLC): > 100 µM
TGI (OVCAR-4 ovarian): > 100 µM
TGI (HCT-15 colon): > 100 µM

Cc1ccc(P(c2ccc(C)cc2)c2ccc(C)cc2)cc1
TGI (OVCAR-8 ovarian): 59.6 µM
TGI (SN12C renal): 34.3 µM
TGI (OVCAR-5 ovarian): 61.1 µM
TGI (SK-MEL-5 melanoma): 33.1 µM
TGI (U251 CNS): 43 µM
TGI (UACC-257 melanoma): 59.3 µM
TGI (EKVX NSCLC): > 100 µM
TGI (OVCAR-4 ovarian): 80.3 µM
TGI (HT29 colon): > 100 µM
TGI (HCT-15 colon): > 100 µM

COc1cc(C(C)(C)C)cc(OC)c1C(O)(c1c(OC)cc(C(C)(C)C)cc1OC)c1c(OC)cc(C(C)(C)C)cc1OC
GI50 (OVCAR-5 ovarian): 0.327 µM
TGI (OVCAR-5 ovarian): 1.02 µM
GI50 (SK-MEL-5 melanoma): 0.236 µM
TGI (SK-MEL-5 melanoma): 0.552 µM
GI50 (U251 CNS): 0.0636 µM
TGI (U251 CNS): 1.23 µM
GI50 (UACC-257 melanoma): 0.268 µM
TGI (UACC-257 melanoma): 0.702 µM
GI50 (OVCAR-4 ovarian): 0.307 µM
TGI (OVCAR-4 ovarian): 1.06 µM
GI50 (HT29 colon): 0.224 µM
TGI (HT29 colon): 0.877 µM

Nc1nc(N)c2ncn(-c3ccc(Cl)c(Cl)c3)c2n1
TGI (OVCAR-8 ovarian): > 100 µM
TGI (SN12C renal): 61.7 µM
TGI (OVCAR-5 ovarian): > 100 µM
TGI (SK-MEL-5 melanoma): > 100 µM
TGI (U251 CNS): > 100 µM
TGI (UACC-257 melanoma): 57.9 µM
TGI (EKVX NSCLC): > 100 µM
TGI (OVCAR-4 ovarian): > 100 µM
TGI (HT29 colon): 58.1 µM
TGI (HCT-15 colon): > 100 µM

C=C(CN(C)C)C(=O)c1ccc(C)cc1C
TGI (OVCAR-8 ovarian): 37.4 µM
TGI (SN12C renal): 33.4 µM
TGI (OVCAR-5 ovarian): 31.1 µM
TGI (SK-MEL-5 melanoma): 28.8 µM
TGI (U251 CNS): 47.8 µM
TGI (UACC-257 melanoma): 24.8 µM
TGI (EKVX NSCLC): 40 µM
TGI (OVCAR-4 ovarian): 33.5 µM
TGI (HT29 colon): 36.6 µM
TGI (HCT-15 colon): 12.5 µM

Nc1ccc(OCC(O)N2C(=O)c3ccccc3C2=O)cc1 (stereo not given)
TGI (OVCAR-8 ovarian): > 100 µM
TGI (OVCAR-5 ovarian): > 100 µM
TGI (SK-MEL-5 melanoma): > 100 µM
TGI (U251 CNS): > 100 µM
TGI (UACC-257 melanoma): > 100 µM
TGI (EKVX NSCLC): > 100 µM
TGI (OVCAR-4 ovarian): > 100 µM
TGI (HT29 colon): > 100 µM
TGI (HCT-15 colon): > 100 µM

CCN=C=NCCCN(C)C
TGI (OVCAR-8 ovarian): > 100 µM
TGI (SN12C renal): > 100 µM
TGI (OVCAR-5 ovarian): > 100 µM
TGI (SK-MEL-5 melanoma): > 100 µM
TGI (U251 CNS): > 100 µM
TGI (UACC-257 melanoma): > 100 µM
TGI (EKVX NSCLC): > 100 µM
TGI (OVCAR-4 ovarian): > 100 µM
TGI (HT29 colon): > 100 µM
TGI (HCT-15 colon): > 100 µM

CN1CCC(C(=O)NNc2ccccc2)CC1
TGI (OVCAR-8 ovarian): > 100 µM
TGI (SN12C renal): > 100 µM
TGI (OVCAR-5 ovarian): > 41.6 µM
TGI (SK-MEL-5 melanoma): 45.6 µM
TGI (U251 CNS): > 100 µM
TGI (UACC-257 melanoma): > 89.2 µM
TGI (EKVX NSCLC): > 100 µM
TGI (OVCAR-4 ovarian): > 100 µM
TGI (HT29 colon): > 100 µM
TGI (HCT-15 colon): > 51.1 µM

N=C(N)c1ccc(-c2ccc(-c3cncc4ccccc34)s2)cc1F
GI50 (SN12C renal): 1.85 µM
TGI (SN12C renal): 3.65 µM
GI50 (OVCAR-5 ovarian): 1.6 µM
TGI (OVCAR-5 ovarian): 3.1 µM
GI50 (SK-MEL-5 melanoma): 1.75 µM
TGI (SK-MEL-5 melanoma): 3.26 µM
GI50 (HT29 colon): 1.68 µM
TGI (HT29 colon): 4.48 µM
GI50 (HCT-15 colon): 1.75 µM
TGI (HCT-15 colon): 3.64 µM

COc1ccc2[nH]c3c([N+](=O)[O-])ccc(Cl)c3c(=O)c2c1
TGI (OVCAR-8 ovarian): > 74 µM
TGI (SN12C renal): 55.1 µM
TGI (OVCAR-5 ovarian): > 58 µM
TGI (SK-MEL-5 melanoma): 55.2 µM
TGI (U251 CNS): > 64.1 µM
TGI (UACC-257 melanoma): 16.5 µM
TGI (EKVX NSCLC): > 100 µM
TGI (OVCAR-4 ovarian): 28.7 µM
TGI (HT29 colon): 32.2 µM
TGI (HCT-15 colon): 40.8 µM

C=C(C)C(=O)OC1C(C(C)CCCO)=C(CO)CC2OC(=O)C(=C)C21 (stereo not given)
TGI (OVCAR-8 ovarian): > 100 µM
TGI (SN12C renal): 32.8 µM
TGI (OVCAR-5 ovarian): 54.3 µM
TGI (SK-MEL-5 melanoma): 28.5 µM
TGI (U251 CNS): 45.3 µM
TGI (UACC-257 melanoma): 39.1 µM
TGI (EKVX NSCLC): 87.2 µM
TGI (OVCAR-4 ovarian): > 100 µM
TGI (HT29 colon): 45.9 µM
TGI (HCT-15 colon): 26.9 µM

OC(Cc1ccccc1)(Cc1ccccc1)c1ccccc1
TGI (OVCAR-8 ovarian): 39.6 µM
TGI (SN12C renal): 32 µM
TGI (OVCAR-5 ovarian): 38 µM
TGI (SK-MEL-5 melanoma): 32.5 µM
TGI (U251 CNS): 32.8 µM
TGI (UACC-257 melanoma): 36.7 µM
TGI (EKVX NSCLC): 38 µM
TGI (OVCAR-4 ovarian): 32.4 µM
TGI (HT29 colon): 34.9 µM
TGI (HCT-15 colon): 50.4 µM
